Measured values reported in ChEMBL document CHEMBL1123411, “Ribose-modified adenosine analogues as adenosine receptor agonists” (J Med Chem, 1986).

Key:
Rattus norvegicus [1] = species: Rattus norvegicus; assay: Cardiovascular activity (as 20% decrease in blood pressure).; format: functional
Rattus norvegicus [2] = species: Rattus norvegicus; assay: Cardiovascular activity (as 20% decrease in rate).; format: functional
Adenosine receptor A1 = target: T1, Adenosine receptor A1 (Rattus norvegicus, UniProt P25099); assay: Binding affinity for adenosine A1 receptor in rat brain membranes using [3H]CHA as radioligand; format: cell membranes
T1 sequence (P25099 whole entry): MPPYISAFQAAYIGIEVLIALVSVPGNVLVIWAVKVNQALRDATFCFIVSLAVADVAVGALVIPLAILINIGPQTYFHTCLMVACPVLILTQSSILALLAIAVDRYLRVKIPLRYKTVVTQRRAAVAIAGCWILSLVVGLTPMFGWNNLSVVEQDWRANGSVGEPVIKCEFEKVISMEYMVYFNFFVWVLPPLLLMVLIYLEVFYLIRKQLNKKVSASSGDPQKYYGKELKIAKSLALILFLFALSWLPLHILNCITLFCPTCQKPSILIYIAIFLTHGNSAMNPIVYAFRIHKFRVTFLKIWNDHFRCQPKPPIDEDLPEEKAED

Mus musculus [3] = species: Mus musculus; assay: CNS activity measured using screen test failure; format: functional
Adenosine A2 receptor = Adenosine A2 receptor (Rattus norvegicus, UniProt P29276+P30543)
Description: Binding affinity for adenosine A2 receptor in rat striatal membranes using [3H]NECA as radioligand

Mus musculus [4] = species: Mus musculus; assay: Dose required to inhibit mouse locomotor activity by 60%; format: functional
Rattus norvegicus [5] = species: Rattus norvegicus; assay: Compound was evaluated for Cardiovascular activity (as 20% decrease in rate) in rats; format: functional; conditions: Heart

Compound	Ki (Adenosine receptor A1) [µM]	Ki (Adenosine A2 receptor) [µM]	ED20 (Rattus norvegicus [1]) [mg/kg]	ED20 (Rattus norvegicus [2]) [mg/kg]	LAD (Mus musculus [3]) [mg/kg]	LAD (Mus musculus [4]) [mg/kg]	ED20 (Rattus norvegicus [5]) [mg/kg]
C[C@H](Cc1ccccc1)Nc1ncnc2c1ncn2[C@@H]1O[C@@H](CO)[C@@H](O)[C@H]1O			> 10	> 10	>100	>100	
C[C@H](Cc1ccccc1)Nc1ncnc2c1ncn2C1CCCCO1 (stereo not given in full)	1.2	38			>100	100	
C[C@H](Cc1ccccc1)Nc1ncnc2c1ncn2[C@@H]1O[C@H](CO)[C@@H](O)[C@H]1O [(R)-PIA]					3	1	0.006
C[C@H](Cc1ccccc1)Nc1ncnc2c1ncn2C(CO)OC(O)CO (stereo not given in full)	> 10	> 10	0.9	> 10	>100	>100	
C[C@H](Cc1ccccc1)Nc1ncnc2c1ncn2C1CCCO1 (stereo not given in full)	1.5	8.2	> 3	> 3	>100	>100	
C[C@H](Cc1ccccc1)Nc1ncnc2c1ncn2COCCO	68				>30	>30	
C[C@H](Cc1ccccc1)Nc1[nH]cnc2ncnc1-2	9.6	39	8	> 10	100	100	
C[C@H](Cc1ccccc1)Nc1ncnc2c1ncn2C1CCCC(O)C1O (stereo not given in full)	15	> 10	> 3	> 3	>100	>100	

Second part, led by results:

Ki (Adenosine receptor A1) [µM]	Ki (Adenosine A2 receptor) [µM]	Compound	ED20 (Rattus norvegicus [1]) [mg/kg]	ED20 (Rattus norvegicus [2]) [mg/kg]	LAD (Mus musculus [3]) [mg/kg]	LAD (Mus musculus [4]) [mg/kg]	ED20 (Rattus norvegicus [5]) [mg/kg]
0.029	6.9	C[C@H](Cc1ccccc1)Nc1ncnc2c1ncn2[C@@H]1O[C@H](CO)C[C@H]1O	0.8	0.4	100	100	
> 2.2	> 100	C[C@H](Cc1ccccc1)Nc1ncnc2c1ncn2CC(O)C(O)C(O)CO (stereo not given in full)	10	> 10	>100	>100	
1.9		C[C@H](Cc1ccccc1)Nc1ncnc2c1ncn2[C@H]1C[C@H](O)[C@@H](CO)O1			>30	>30	
5.7	> 100	C[C@H](Cc1ccccc1)Nc1ncnc2c1ncn2C1OCC(O)C(O)C1O (stereo not given in full)					
0.025	3.3	C[C@H](Cc1ccccc1)Nc1ncnc2c1ncn2C1O[C@H](C)[C@@H](O)[C@H]1O (stereo not given in full)	0.05	> 0.3	100	30	
> 10	> 10	C[C@H](Cc1ccccc1)Nc1ncnc2c1ncn2C[C@@H](O)CO	> 10	> 10	>100	>100	
> 10	> 50	C[C@H](Cc1ccccc1)Nc1ncnc2c1ncn2C1OC[C@](O)(CO)[C@H]1O (stereo not given in full)					
0.0016	1.9	C[C@H](Cc1ccccc1)Nc1ncnc2c1ncn2C1O[C@H](CCl)[C@@H](O)[C@H]1O (stereo not given in full)	0.1	0.08	100	10	
0.029	56	CSC[C@H]1OC(n2cnc3c(N[C@H](C)Cc4ccccc4)ncnc32)[C@H](O)[C@@H]1O (stereo not given in full)	0.023	3	>100	>100	
> 10	> 10	C[C@H](Cc1ccccc1)Nc1ncnc2c1ncn2C[C@H](O)CO			>100	>100	
